Measurements reported in ChEMBL document CHEMBL4689842, “EUbOPEN Chemogenomics Library wave 1” (2021).

Key:
Assay type in all cases: toxicity, cell-based
HEK-293T = assay: Incucyte cell viability with HEK293T; settings: human, 10 µM, compound concentration 10 uM
U2OS = assay: Incucyte cell viability with U2OS; settings: human, 10 µM, compound concentration 10 uM
Fibroblast = assay: Incucyte cell viability with human fibroblast; settings: 10 µM, compound concentration 10 uM
[1] = 0 h, replicate number 1, timepoint 0 hours
[2] = 6 h, replicate number 1, timepoint 6 hours
[3] = 12 h, replicate number 1, timepoint 12 hours
[4] = 18 h, replicate number 1, timepoint 18 hours
[5] = 24 h, replicate number 1, timepoint 24 hours
[6] = 24 h, replicate number 2, timepoint 24 hours
[7] = 6 h, replicate number 2, timepoint 6 hours
[8] = 18 h, replicate number 2, timepoint 18 hours
[9] = 0 h, replicate number 2, timepoint 0 hours
[10] = 12 h, replicate number 2, timepoint 12 hours
Note: filed as whole numbers so only -1 and 0 and 1 occur.

Row | Compound | Growth Rate (HEK-293T; [1]) | Growth Rate (HEK-293T; [2]) | Growth Rate (HEK-293T; [3]) | Growth Rate (HEK-293T; [4]) | Growth Rate (HEK-293T; [5]) | Growth Rate (HEK-293T; [6]) | Growth Rate (U2OS; [1]) | Growth Rate (U2OS; [2]) | Growth Rate (U2OS; [7]) | Growth Rate (U2OS; [3]) | Growth Rate (U2OS; [4]) | Growth Rate (U2OS; [8]) | Growth Rate (U2OS; [5]) | Growth Rate (Fibroblast; [1]) | Growth Rate (Fibroblast; [7]) | Growth Rate (Fibroblast; [10]) | Growth Rate (Fibroblast; [4]) | Growth Rate (Fibroblast; [8]) | Growth Rate (Fibroblast; [5]) | Growth Rate (Fibroblast; [3]) | also measured
1 | NC(=O)[C@@H]1CCCN1C(=O)[C@H](Cc1cnc[nH]1)NC(=O)[C@@H]1CCC(=O)N1 [PROTIRELIN] | 0 | 1 | 1 | 1 | 1 | 0 | 0 | 1 | 0 | 0 | 0 | 1 | 0 | 0 | 0 | 1 | 1 | 0 | 1 |  | Growth Rate (Fibroblast; [9]): 1; Growth Rate (Fibroblast; [6]): 0
2 | CCN1CCC[C@H]1CNC(=O)c1c(OC)ccc(Br)c1OC [REMOXIPRIDE] | 0 | 1 | 1 | 1 | 1 |  |  |  | 1 | 0 | 0 | 1 | 0 | 0 | 0 | 0 | 1 | 0 | 1 |  | Growth Rate (U2OS; [10]): 1; Growth Rate (U2OS; [6]): 1; Growth Rate (Fibroblast; [6]): 0
3 | CN(CCOc1ccc(CC2SC(=O)NC2=O)cc1)c1ccccn1 (configuration not stated) [ROSIGLITAZONE] | 1 | 1 | 1 | 1 | 1 | 0 | 0 | 0 | 1 | 1 | 1 |  | 1 | 0 | 0 | 0 | 1 | 0 | 1 | 1 | Growth Rate (HEK-293T; [9]): 0; Growth Rate (HEK-293T; [7]): 0; Growth Rate (HEK-293T; [10]): 0; Growth Rate (HEK-293T; [8]): 0
4 | Cc1cc(OCC(=O)O)cc(C)c1Cc1ccc(O)c(C(C)C)c1 [SOBETIROME] | 0 | 0 | 0 | 0 | 0 | 1 |  |  | 0 | 1 | 0 | 1 | 1 | 0 | 0 | 0 | 1 |  | 0 |  | Growth Rate (HEK-293T; [8]): 1; Growth Rate (U2OS; [9]): 0; Growth Rate (Fibroblast; [2]): -1; Growth Rate (Fibroblast; [6]): 1
5 | O=C1c2ccc(Nc3ccc(F)cc3F)cc2CCc2ccc(OC[C@H](O)CO)cc21 [Skepinone-L] |  | 0 |  |  | 1 |  | 0 | 0 |  | 0 | 0 | 1 | 0 |  |  |  | 0 |  | 0 | 0 | Growth Rate (Fibroblast; [2]): 0
6 | COc1cccc(CNC(=O)c2nc3scc(COCc4ccc(C(=O)O)cc4)c3c(=O)[nH]2)c1 [T-26c] | 0 |  |  | 1 | 1 |  | 0 | 1 | 0 | 1 | 1 |  | 1 |  | 0 | 0 | 1 | 0 | 1 | 1 | Growth Rate (HEK-293T; [9]): 1; Growth Rate (U2OS; [10]): 0; Growth Rate (Fibroblast; [9]): 0
7 | CCOC(=O)c1ccc(C#Cc2ccc3c(c2)C(C)(C)CCS3)nc1 [TAZAROTENE] |  | 0 | 0 | 0 | 0 |  |  |  | 1 | 0 | 0 | 1 | 0 | 0 |  |  | 1 |  | 0 | 1 | Growth Rate (HEK-293T; [9]): 0; Growth Rate (HEK-293T; [7]): 1; Growth Rate (U2OS; [9]): 0; Growth Rate (U2OS; [10]): 1; Growth Rate (U2OS; [6]): 1
8 | Cc1ccc2[nH]c(CNCCCc3ccncc3)cc(=O)c2c1 [UCSF924NC] | 1 | 0 | 0 | 0 | 0 | 1 |  | 0 |  | 0 | 0 | 1 | 0 | 1 |  |  | 0 |  | 0 | 0 | Growth Rate (HEK-293T; [9]): 0; Growth Rate (HEK-293T; [7]): 1; Growth Rate (HEK-293T; [10]): 1; Growth Rate (HEK-293T; [8]): 1; Growth Rate (U2OS; [10]): 1; Growth Rate (Fibroblast; [2]): 0
